Test results as given in ChEMBL document CHEMBL1909046, “DrugMatrix in vitro pharmacology data”.

Tests used:
Caspase-1 = target: T1, Caspase-1 (Homo sapiens, UniProt P29466); set-up: species or system Escherichia coli;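 note: Caspase-1 enzyme inhibition assay with a peptide substrate; in other assays of this panel Not Active means under 50% inhibition at 10 µM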
T1 sequence (P29466 whole entry): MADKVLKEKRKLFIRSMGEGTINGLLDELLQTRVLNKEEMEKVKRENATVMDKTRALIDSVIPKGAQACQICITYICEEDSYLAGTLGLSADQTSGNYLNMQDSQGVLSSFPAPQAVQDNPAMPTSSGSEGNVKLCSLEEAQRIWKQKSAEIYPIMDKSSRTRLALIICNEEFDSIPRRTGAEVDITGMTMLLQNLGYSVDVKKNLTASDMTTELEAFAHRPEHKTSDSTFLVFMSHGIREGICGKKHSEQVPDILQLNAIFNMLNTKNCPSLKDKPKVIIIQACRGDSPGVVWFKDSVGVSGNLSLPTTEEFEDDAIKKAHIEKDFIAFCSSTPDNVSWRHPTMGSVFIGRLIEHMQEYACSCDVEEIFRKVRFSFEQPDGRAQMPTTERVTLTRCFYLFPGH

Melanocortin receptor 4 = Melanocortin receptor 4 (Homo sapiens, UniProt P32245); assay type: cell membranes, Membrane; details: hek293; note: in other assays of this panel Not Active means under 50% inhibition at 10 µM
[1] = DRUGMATRIX: Glutamate, NMDA, Agonism radioligand binding (ligand: [3H] CGP-39653); assay type: cell membranes, Rattus norvegicus, Wistar, Cerebral cortex, Membrane; details: Not Active = under 50% inhibition at 10 µM
[2] = DRUGMATRIX: Platelet-Derived Growth Factor (PDGF) radioligand binding (ligand: [125I] PDGF); assay type: cell-based; details: nih3t3; Not Active = under 50% inhibition at 10 µM
[3] = DRUGMATRIX: ATPase, Na+/K+ enzyme inhibition (substrate: ATP); assay type: tissue-based, Sus scrofa, Heart; details: Not Active = under 50% inhibition at 10 µM
[4] = target: T2, Cysteinyl leukotriene receptor 1 (Homo sapiens, UniProt Q9Y271); assay type: cell membranes, Membrane; details: cho-k1; note: in other assays of this panel Not Active means under 50% inhibition at 10 µM
T2 sequence (Q9Y271 whole entry): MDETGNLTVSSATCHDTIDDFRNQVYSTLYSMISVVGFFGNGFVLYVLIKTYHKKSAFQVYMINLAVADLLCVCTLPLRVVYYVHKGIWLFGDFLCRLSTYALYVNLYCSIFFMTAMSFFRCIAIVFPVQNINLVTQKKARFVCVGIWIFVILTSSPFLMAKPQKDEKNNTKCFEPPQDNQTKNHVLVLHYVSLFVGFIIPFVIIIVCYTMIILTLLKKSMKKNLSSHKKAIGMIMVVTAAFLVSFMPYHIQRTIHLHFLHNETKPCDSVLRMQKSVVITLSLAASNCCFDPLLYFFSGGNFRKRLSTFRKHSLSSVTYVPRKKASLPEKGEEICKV

[5] = DRUGMATRIX: Imidazoline I2, Central radioligand binding (ligand: [3H] Idazoxan); assay type: cell membranes, Rattus norvegicus, Wistar, Cerebral cortex, Membrane; details: Not Active = under 50% inhibition at 10 µM
[6] = target: Mitogen-activated protein kinase 1 (Homo sapiens, UniProt P28482); assay: DRUGMATRIX: Protein Serine/Threonine Kinase, ERK2 enzyme inhibition (substrate: Myelin Basic Protein); set-up: species or system Escherichia coli; details: Not Active = under 50% inhibition at 10 µM
Sequence of Mitogen-activated protein kinase 1 (P28482 whole entry): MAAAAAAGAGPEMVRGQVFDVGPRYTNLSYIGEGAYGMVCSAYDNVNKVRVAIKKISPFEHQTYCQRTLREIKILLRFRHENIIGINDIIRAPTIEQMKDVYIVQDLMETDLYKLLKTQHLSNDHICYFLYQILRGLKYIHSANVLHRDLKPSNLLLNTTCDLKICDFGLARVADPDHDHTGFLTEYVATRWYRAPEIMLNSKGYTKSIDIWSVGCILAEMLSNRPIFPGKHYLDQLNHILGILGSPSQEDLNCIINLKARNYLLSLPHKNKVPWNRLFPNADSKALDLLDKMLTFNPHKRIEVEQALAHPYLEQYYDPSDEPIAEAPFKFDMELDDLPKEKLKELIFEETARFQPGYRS

Sequence of Melanocortin receptor 4 (P32245 whole entry): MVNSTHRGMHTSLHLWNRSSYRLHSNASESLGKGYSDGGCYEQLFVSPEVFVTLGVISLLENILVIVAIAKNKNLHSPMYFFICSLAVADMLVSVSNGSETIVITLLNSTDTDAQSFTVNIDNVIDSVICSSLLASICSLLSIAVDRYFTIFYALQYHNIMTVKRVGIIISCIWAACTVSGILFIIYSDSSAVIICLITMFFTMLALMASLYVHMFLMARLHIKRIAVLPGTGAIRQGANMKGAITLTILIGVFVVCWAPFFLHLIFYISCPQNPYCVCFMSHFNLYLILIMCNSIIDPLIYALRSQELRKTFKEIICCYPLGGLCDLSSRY

CC(C)(CO)C(O)C(=O)NCCCO (configuration not stated) [PANTHENOL]
Not Active: IC50 (Caspase-1) | IC50 (Melanocortin receptor 4) | IC50 [1] | Ki [1] | IC50 [2] | Ki [2] | IC50 [3] | Ki [3] | IC50 [4] | IC50 [5] | Ki [5] | IC50 [6]

COc1ccc(Cc2nccc3cc(OC)c(OC)cc23)cc1OC [PAPAVERINE]
Not Active: IC50 (Caspase-1) | IC50 (Melanocortin receptor 4) | IC50 [1] | Ki [1] | IC50 [2] | Ki [2] | IC50 [3] | Ki [3] | Ki [4] | IC50 [5] | Ki [5] | IC50 [6]

OCCN1CCN(CCCN2c3ccccc3Sc3ccc(Cl)cc32)CC1 [PERPHENAZINE]
Not Active: IC50 (Caspase-1) | IC50 (Melanocortin receptor 4) | IC50 [1] | Ki [1] | IC50 [2] | Ki [2] | IC50 [3] | Ki [3] | IC50 [4] | IC50 [5] | Ki [5] | IC50 [6]

CCCCC1C(=O)N(c2ccccc2)N(c2ccccc2)C1=O [PHENYLBUTAZONE]
Not Active: IC50 (Caspase-1) | IC50 (Melanocortin receptor 4) | IC50 [1] | Ki [1] | IC50 [2] | Ki [2] | IC50 [3] | Ki [3] | IC50 [4] | IC50 [5] | Ki [5] | IC50 [6]

Cc1cccc(Nc2cc(Cl)nc(SCC(=O)O)n2)c1C [PIRINIXIC ACID]
Not Active: IC50 (Caspase-1) | IC50 (Melanocortin receptor 4) | IC50 [1] | Ki [1] | IC50 [2] | Ki [2] | IC50 [3] | Ki [3] | IC50 [4] | IC50 [5] | Ki [5] | IC50 [6]

CC[C@H](C)C(=O)O[C@H]1C[C@H](O)C=C2C=C[C@H](C)[C@H](CC[C@@H](O)C[C@@H](O)CC(=O)O)[C@H]21 [PRAVASTATIN]
Not Active: IC50 (Caspase-1) | IC50 (Melanocortin receptor 4) | IC50 [1] | Ki [1] | IC50 [2] | Ki [2] | IC50 [3] | Ki [3] | IC50 [4] | IC50 [5] | Ki [5] | IC50 [6]

CC(C)(Sc1cc(C(C)(C)C)c(O)c(C(C)(C)C)c1)Sc1cc(C(C)(C)C)c(O)c(C(C)(C)C)c1 [PROBUCOL]
Not Active: IC50 (Caspase-1) | IC50 (Melanocortin receptor 4) | IC50 [1] | Ki [1] | IC50 [2] | Ki [2] | IC50 [3] | Ki [3] | IC50 [4] | IC50 [5] | Ki [5] | IC50 [6]

COBALT(II) ACETYLACETONATE
Not Active: IC50 (Caspase-1) | Ki (Caspase-1) | IC50 (Melanocortin receptor 4) | Ki (Melanocortin receptor 4) | IC50 [1] | Ki [1] | IC50 [2] | Ki [2] | IC50 [3] | Ki [3] | IC50 [4] | Ki [4] | IC50 [5] | Ki [5] | IC50 [6] | Ki [6]

INSULIN HUMAN
Not Active: IC50 (Caspase-1) | Ki (Caspase-1) | IC50 (Melanocortin receptor 4) | Ki (Melanocortin receptor 4) | IC50 [1] | Ki [1] | IC50 [2] | Ki [2] | IC50 [3] | Ki [3] | IC50 [4] | Ki [4] | IC50 [5] | Ki [5] | IC50 [6] | Ki [6]

POLYVINYL ALCOHOL
Not Active: IC50 (Caspase-1) | Ki (Caspase-1) | IC50 (Melanocortin receptor 4) | Ki (Melanocortin receptor 4) | IC50 [1] | Ki [1] | IC50 [2] | Ki [2] | IC50 [3] | Ki [3] | IC50 [4] | Ki [4] | IC50 [5] | Ki [5] | IC50 [6] | Ki [6]
